Results: PubChem BioAssay AID1259407 (Chemical Carcinogenesis Research Information System (CCRIS), 2018)
Active and inactive are the calls of the source. The rule behind the calls is not given here.

Test system: CCRIS mutagenicity, Ames/micronucleus/aberration tests
Test: CCRIS mutagenicity studies
[1] = Test System: AMES SALMONELLA TYPHIMURIUM, Strain/Indicator: TA98, Metabolic Activation: NONE, Method: PREINCUBATION
[2] = Test System: AMES SALMONELLA TYPHIMURIUM, Strain/Indicator: TA100, Metabolic Activation: NONE, Method: PREINCUBATION
[3] = Test System: AMES SALMONELLA TYPHIMURIUM, Strain/Indicator: TA100, Metabolic Activation: RAT, LIVER, S-9, AROCLOR 1254, Method: PREINCUBATION
[4] = Test System: AMES SALMONELLA TYPHIMURIUM, Strain/Indicator: TA98, Metabolic Activation: NONE, Method: STANDARD PLATE
[5] = Test System: AMES SALMONELLA TYPHIMURIUM, Strain/Indicator: TA98, Metabolic Activation: RAT, LIVER, S-9, AROCLOR 1254, Method: STANDARD PLATE
[6] = Test System: AMES SALMONELLA TYPHIMURIUM, Strain/Indicator: TA100, Metabolic Activation: NONE, Method: STANDARD PLATE
[7] = Test System: AMES SALMONELLA TYPHIMURIUM, Strain/Indicator: TA100, Metabolic Activation: RAT, LIVER, S-9, AROCLOR 1254, Method: STANDARD PLATE
[8] = Test System: AMES SALMONELLA TYPHIMURIUM, Strain/Indicator: TA1535, Metabolic Activation: NONE, Method: STANDARD PLATE
[9] = Test System: AMES SALMONELLA TYPHIMURIUM, Strain/Indicator: TA1535, Metabolic Activation: RAT, LIVER, S-9, AROCLOR 1254, Method: STANDARD PLATE
[10] = Test System: AMES SALMONELLA TYPHIMURIUM, Strain/Indicator: TA1537, Metabolic Activation: NONE, Method: STANDARD PLATE
[11] = Test System: AMES SALMONELLA TYPHIMURIUM, Strain/Indicator: TA1537, Metabolic Activation: RAT, LIVER, S-9, AROCLOR 1254, Method: STANDARD PLATE

With O=C1C=Cc2c(ccc3ccccc23)C1=O the mutagenic call (Test System: AMES SALMONELLA TYPHIMURIUM, Strain/Indicator: TA97A, Metabolic Activation: NONE, Method: PREINCUBATION) was “inactive; negative”, the mutagenic call [1] was “inactive; negative” and the mutagenic call [2] was “inactive; negative”. For the same compound, the mutagenic call (Test System: AMES SALMONELLA TYPHIMURIUM, Strain/Indicator: TA102, Metabolic Activation: NONE, Method: PREINCUBATION) was “inactive; negative” and the mutagenic call (Test System: AMES SALMONELLA TYPHIMURIUM, Strain/Indicator: TA104, Metabolic Activation: NONE, Method: PREINCUBATION) was “active; positive”.
For C/C=C\C(=O)O[C@@H]1C[C@H]2O[C@@H]3C=C(C)C(=O)C[C@]3(C)[C@]1(C)[C@]21CO1, the mutagenic call [1] was “inactive; negative”, the mutagenic call (Test System: AMES SALMONELLA TYPHIMURIUM, Strain/Indicator: TA98, Metabolic Activation: RAT, LIVER, S-9, AROCLOR 1254, Method: PREINCUBATION) was “inactive; negative” and the mutagenic call [2] was “inactive; negative”. The mutagenic call [3] was “inactive; negative”.
With Cc1ccc(S(=O)(=O)n2ncc(Cl)c(Cl)c2=O)cc1 the mutagenic call [4] was “inactive; negative”, the mutagenic call [5] was “inactive; negative” and the mutagenic call [6] was “inactive; negative”. For the same compound, the mutagenic call [7] was “inactive; negative”, the mutagenic call [8] was “inactive; negative” and the mutagenic call [9] was “inactive; negative”. The mutagenic call [10] was “inactive; negative” and the mutagenic call [11] was “inactive; negative”.
With O=c1c2c(c3c(ccc4ccc[nH]c43)c1O)O2 the mutagenic call [6] was “active; positive”.
For CC(=O)N(CC(O)CN(C(C)=O)c1c(I)c(C(=O)NCC(O)CO)c(I)c(C(=O)NCC(O)CO)c1I)c1c(I)c(C(=O)NCC(O)CO)c(I)c(C(=O)NCC(O)CO)c1I (centres undefined), the mutagenic call [4] was “inactive; negative”, the mutagenic call [5] was “inactive; negative” and the mutagenic call [6] was “inactive; negative”. The mutagenic call [7] was “inactive; negative”, the mutagenic call [8] was “inactive; negative” and the mutagenic call [9] was “inactive; negative”. The mutagenic call [10] was “inactive; negative”, the mutagenic call [11] was “inactive; negative” and the mutagenic call (Test System: AMES SALMONELLA TYPHIMURIUM, Strain/Indicator: TA1538, Metabolic Activation: NONE, Method: STANDARD PLATE) was “inactive; negative”. For the same compound, the mutagenic call (Test System: AMES SALMONELLA TYPHIMURIUM, Strain/Indicator: TA1538, Metabolic Activation: RAT, LIVER, S-9, AROCLOR 1254, Method: STANDARD PLATE) was “inactive; negative”, the mutagenic call (Test System: E. COLI, Strain/Indicator: WP2 UVRA, Metabolic Activation: NONE, Method: STANDARD PLATE) was “inactive; negative” and the mutagenic call (Test System: E. COLI, Strain/Indicator: WP2 UVRA, Metabolic Activation: RAT, LIVER, S-9, AROCLOR 1254, Method: STANDARD PLATE) was “inactive; negative”.
Nc1ccccc1C(=O)OCCc1ccccc1 was tested, and the mutagenic call (Test System: AMES SALMONELLA TYPHIMURIUM, Strain/Indicator: TA97, Metabolic Activation: HAMSTER, LIVER, S-9, AROCLOR 1254 (10 OR 30%), Method: PREINCUBATION) was “inactive; negative”, the mutagenic call (Test System: AMES SALMONELLA TYPHIMURIUM, Strain/Indicator: TA97, Metabolic Activation: NONE, Method: PREINCUBATION) was “inactive; negative” and the mutagenic call (Test System: AMES SALMONELLA TYPHIMURIUM, Strain/Indicator: TA97, Metabolic Activation: RAT, LIVER, S-9, AROCLOR 1254 (10 OR 30%), Method: PREINCUBATION) was “inactive; negative”. For the same compound, the mutagenic call (Test System: AMES SALMONELLA TYPHIMURIUM, Strain/Indicator: TA98, Metabolic Activation: HAMSTER, LIVER, S-9, AROCLOR 1254 (10 OR 30%), Method: PREINCUBATION) was “inactive; negative”, the mutagenic call [1] was “inactive; negative” and the mutagenic call (Test System: AMES SALMONELLA TYPHIMURIUM, Strain/Indicator: TA98, Metabolic Activation: RAT, LIVER, S-9, AROCLOR 1254 (10 OR 30%), Method: PREINCUBATION) was “inactive; negative”. The mutagenic call (Test System: AMES SALMONELLA TYPHIMURIUM, Strain/Indicator: TA100, Metabolic Activation: HAMSTER, LIVER, S-9, AROCLOR 1254 (10 OR 30%), Method: PREINCUBATION) was “inactive; negative”, the mutagenic call [2] was “inactive; negative” and the mutagenic call (Test System: AMES SALMONELLA TYPHIMURIUM, Strain/Indicator: TA100, Metabolic Activation: RAT, LIVER, S-9, AROCLOR 1254 (10 OR 30%), Method: PREINCUBATION) was “inactive; negative”. The mutagenic call (Test System: AMES SALMONELLA TYPHIMURIUM, Strain/Indicator: TA1535, Metabolic Activation: HAMSTER, LIVER, S-9, AROCLOR 1254 (10 OR 30%), Method: PREINCUBATION) was “inactive; negative”, the mutagenic call (Test System: AMES SALMONELLA TYPHIMURIUM, Strain/Indicator: TA1535, Metabolic Activation: NONE, Method: PREINCUBATION) was “inactive; negative” and the mutagenic call (Test System: AMES SALMONELLA TYPHIMURIUM, Strain/Indicator: TA1535, Metabolic Activation: RAT, LIVER, S-9, AROCLOR 1254 (10 OR 30%), Method: PREINCUBATION) was “inactive; negative”.
For Fc1ccnc2ccccc12, the mutagenic call [3] was “active; positive” and the mutagenic call (Test System: UDS RODENT HEPATOCYTES, Strain/Indicator: THY INCORP (NON-S-PHASE), Metabolic Activation: NONE, Method: AUTORADIOGRAPHY) was “inactive; negative”.
In the case of N#Cc1cc(I)c(O)c([N+](=O)[O-])c1, the mutagenic call (End Point: In vivo chromosomal aberrations, Test System: Bone marrow cells, Species: Mouse, Strain/Sex: Swiss/Male, Route: Intraperitoneal) is reported as “active; positive (structural changes)”, the mutagenic call [4] is reported as “inactive; negative” and the mutagenic call (Test System: AMES SALMONELLA TYPHIMURIUM, Strain/Indicator: TA98, Metabolic Activation: RAT, LIVER, S-9, KANECHLOR 400, Method: STANDARD PLATE) is reported as “inactive; negative”. The mutagenic call [6] was “inactive; negative”, the mutagenic call (Test System: AMES SALMONELLA TYPHIMURIUM, Strain/Indicator: TA100, Metabolic Activation: RAT, LIVER, S-9, KANECHLOR 400, Method: STANDARD PLATE) was “inactive; negative” and the mutagenic call [8] was “inactive; negative”. The mutagenic call (Test System: AMES SALMONELLA TYPHIMURIUM, Strain/Indicator: TA1535, Metabolic Activation: RAT, LIVER, S-9, KANECHLOR 400, Method: STANDARD PLATE) was “inactive; negative”, the mutagenic call [10] was “inactive; negative” and the mutagenic call (Test System: AMES SALMONELLA TYPHIMURIUM, Strain/Indicator: TA1537, Metabolic Activation: RAT, LIVER, S-9, KANECHLOR 400, Method: STANDARD PLATE) was “inactive; negative”. For the same compound, the mutagenic call (Test System: AMES SALMONELLA TYPHIMURIUM, Strain/Indicator: TA1538, Metabolic Activation: RAT, LIVER, S-9, KANECHLOR 400, Method: STANDARD PLATE) was “inactive; negative”.
ClCCCCl was tested, and the mutagenic call (Test System: AMES SALMONELLA TYPHIMURIUM, Strain/Indicator: GSTT1, Metabolic Activation: RAT, LIVER, S-9, AROCLOR 1254, Method: STANDARD PLATE) was “inactive; negative”, the mutagenic call (Test System: AMES SALMONELLA TYPHIMURIUM, Strain/Indicator: RSJ100, Metabolic Activation: NONE, Method: STANDARD PLATE) was “inactive; negative” and the mutagenic call [4] was “inactive; negative”. The mutagenic call [5] was “inactive; negative”, the mutagenic call [6] was “inactive; negative” and the mutagenic call [7] was “inactive; negative”. For the same compound, the mutagenic call (Test System: AMES SALMONELLA TYPHIMURIUM, Strain/Indicator: TA104, Metabolic Activation: NONE, Method: STANDARD PLATE) was “inactive; negative”, the mutagenic call (Test System: AMES SALMONELLA TYPHIMURIUM, Strain/Indicator: TA104, Metabolic Activation: RAT, LIVER, S-9, AROCLOR 1254, Method: STANDARD PLATE) was “inactive; negative” and the mutagenic call [8] was “inactive; negative”. The mutagenic call [9] was “inactive; negative”.
